From patent US20120095056A1, “2,5-DISUBSTITUTED TETRAZOLE DERIVATIVES AND THEIR USE AS NICOTINIC ACETYLCHOLINE RECEPTOR MODULATORS” (NEUROSEARCH A/S, priority 2009, published 2012)

Experiments:
[1] = biological target: T1, human nicotinic acetylcholine receptor subtype a4b2 (Homo sapiens, UniProt P17787+P43681); test: FLIPR nAChR a4b2 positive allosteric modulator activity (modulation of nicotine-induced response); assay type: cell-based; details: shift of nicotine pEC50 in the presence of 10 μM test compound compared to nicotine alone, HEK-293 cells stably expressing hα4β2
T1 construct: expressed in transfected cells
T1 sequence (P43681 29-627 limits assumed): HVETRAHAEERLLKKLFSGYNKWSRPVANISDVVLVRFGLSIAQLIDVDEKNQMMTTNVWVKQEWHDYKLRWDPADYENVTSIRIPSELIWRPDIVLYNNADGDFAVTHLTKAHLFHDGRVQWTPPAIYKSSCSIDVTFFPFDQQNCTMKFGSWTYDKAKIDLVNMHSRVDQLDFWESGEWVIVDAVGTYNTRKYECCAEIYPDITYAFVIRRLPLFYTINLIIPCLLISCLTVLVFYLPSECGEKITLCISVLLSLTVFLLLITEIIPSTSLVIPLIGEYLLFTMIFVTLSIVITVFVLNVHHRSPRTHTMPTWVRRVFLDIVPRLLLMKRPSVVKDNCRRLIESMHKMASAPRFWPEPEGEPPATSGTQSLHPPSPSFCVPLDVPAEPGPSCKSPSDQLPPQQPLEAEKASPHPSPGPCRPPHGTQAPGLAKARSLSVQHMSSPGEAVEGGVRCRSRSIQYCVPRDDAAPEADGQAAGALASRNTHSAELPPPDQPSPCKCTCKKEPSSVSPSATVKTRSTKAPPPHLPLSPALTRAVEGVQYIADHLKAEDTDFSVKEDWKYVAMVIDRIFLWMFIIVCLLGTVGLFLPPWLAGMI
T1 sequence (P17787 26-502): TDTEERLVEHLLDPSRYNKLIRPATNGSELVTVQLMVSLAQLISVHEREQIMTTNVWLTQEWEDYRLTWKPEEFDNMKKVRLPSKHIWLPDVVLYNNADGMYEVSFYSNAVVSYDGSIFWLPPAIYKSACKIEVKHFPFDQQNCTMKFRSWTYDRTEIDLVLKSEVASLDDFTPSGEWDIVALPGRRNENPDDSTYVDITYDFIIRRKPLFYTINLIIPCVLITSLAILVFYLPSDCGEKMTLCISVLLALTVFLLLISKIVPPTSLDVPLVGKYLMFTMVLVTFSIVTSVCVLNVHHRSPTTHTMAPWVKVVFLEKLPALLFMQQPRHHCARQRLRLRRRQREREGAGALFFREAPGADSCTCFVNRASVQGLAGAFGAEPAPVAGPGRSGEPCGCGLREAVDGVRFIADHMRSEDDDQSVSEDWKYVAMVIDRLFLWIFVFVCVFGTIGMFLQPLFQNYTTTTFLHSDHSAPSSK
Protocol: Characterization of hα4β2 Positive Allosteric Modulators Using FLIPR
The modulator activity is determined as a fluorescence-based assay using a Fluorometric Imaging Plate Reader (FLIPR) as described below in more detail.
Full concentration-response curves of nicotine +/− test compound are generated and delta pEC50 values are calculated based on EC50 values for nicotine +/− test compound. EC50 values (Effective Concentration 50%) represent the concentration of the nicotine, at which the nicotine-induced response is 50% of the maximal nicotine-induced response.

N#Cc1cccc(-n2nnc(-c3cccnc3)n2)c1 [Compound 2.1, 3-(5-Pyridin-3-yl-tetrazol-2-yl)-benzonitrile]
Delta pEC50 [1]: 1.9

N#Cc1cccc(-c2nnn(-c3cccnc3)n2)c1 [Compound 2.2, 3-(2-Pyridin-3-yl-2h-tetrazol-5-yl)-benzonitrile]
melting point: 185 to 205 °C | Delta pEC50 [1]: 1.9

Cl.N#Cc1cccc(-c2nnn(-c3ccc(F)nc3)n2)c1 [Compound 2.3, 3-[2-(6-Fluoro-3-pyridyl)tetrazol-5-yl]benzonitrile hydrochloride]
melting point: 168 to 170 °C | Delta pEC50 [1]: 1.7

N#Cc1cccc(-c2nnn(-c3cncc(Br)c3)n2)c1 [Compound 2.5, 3-[2-(5-Bromo-3-pyridyl)tetrazol-5-yl]benzonitrile]
melting point: 175 to 191 °C

N#Cc1cccc(-c2nnn(-c3cncc(F)c3)n2)c1 [Compound 2.6, 3-[2-(5-Fluoro-3-pyridyl)tetrazol-5-yl]benzonitrile]
Delta pEC50 [1]: 1.8

N#Cc1cccc(-n2nnc(-c3cncc(F)c3)n2)c1 [Compound 2.9, 3-[5-(5-Fluoro-3-pyridyl)tetrazol-2-yl]benzonitrile]
Delta pEC50 [1]: 1.6

N#Cc1cccc(-n2nnc(-c3ccc(F)nc3)n2)c1 [Compound 2.10, 3-[5-(6-Fluoro-3-pyridyl)tetrazol-2-yl]benzonitrile]
Delta pEC50 [1]: 1.3

N#Cc1ccc(-n2nnc(-c3cccnc3)n2)cc1C#N [Compound 2.14, 4-[5-(3-Pyridyl)tetrazol-2-yl]phthalonitrile]
Delta pEC50 [1]: 1.1
